Test system: tyrosinase
Assay: Measurement of Tyrosine Hydroxylation Activity (formation of dopa from tyrosine)
Format: biochemical
Settings: L-tyrosine 1×10^-4 M; 200 units mushroom tyrosinase; absorbance at 280 nm; control 1.83
Excerpt: (§1) Tyrosinase is a copper-containing enzyme which controls synthesis of melanin from starting tyrosine. This enzyme is considered to act as a catalyst for the formation of dopa, dopaquinone and indole-5,6-quinone which are, respectively, intermediates for the synthesis of melanin. We measured activities of the resorcinol derivatives of the formula (1) on inhibition of the formation reactions of the former two intermediates, i.e. the formation reaction of dopa (tyrosine hydroxylase) from tyrosine and the formation reaction of dopa quinone (dopa oxidase) from the dopa. From this, the activity on the tyrosinase activity inhibition was determined.
(1) Measurement of Tyrosine Hydroxylation Activity
(§2) The presence or absence of UV absorptions of the substrate and the substance to be detected was confirmed, after which […] of tyrosinase (Mushroom, 200 units, made by Sigma Co., Ltd.) was added for starting the reaction. The variation in absorbance at 280 nm which is a maximum absorption of L-dopa was measured. The tyrosine hydroxylation activity was indicated a nmol dopa/min/mg of protein. The amount of the protein was measured according to Lowry's method.

SMILES | Activity (tyrosine hydroxylation activity)
CCCCCCCCCCCCc1ccc(O)cc1O [Experiment 6] | 0.33 nmol dopa/min/mg of protein
Oc1ccc(O)cc1 [hydroquinone, reference compound] | 0.00 nmol dopa/min/mg of protein
CCCCCCc1ccc(O)cc1O [Experiment 4] | 0.00 nmol dopa/min/mg of protein
CCCCCCCCc1ccc(O)cc1O [Experiment 5] | 0.00 nmol dopa/min/mg of protein
CC(C)CCc1ccc(O)cc1O [Experiment 3] | 0.00 nmol dopa/min/mg of protein
Cc1ccc(O)cc1O [Comparative Experiment 1, reference compound] | 1.78 nmol dopa/min/mg of protein
CCc1ccc(O)cc1O [drawing 2] | 0.00 nmol dopa/min/mg of protein
CCCCc1ccc(O)cc1O [Experiment 2] | 0.00 nmol dopa/min/mg of protein

Test system: tyrosinase
Assay: Measurement of Dopa Oxidation Activity (formation of dopa quinone from dopa)
Format: biochemical, Mushroom
Settings: L-dopa 5×10^-3 M; 10 units tyrosinase; 475 nm; control 15.80
Excerpt: as §1, §2
(2) Measurement of Dopa Oxidation Activity
The general procedure of Measurement (1) was repeated except that L-dopa (5×10^-3 M) was used as a that produced dopa chrome was measured at a wavelength of 475 nm, and that 10 units of tyrosinase were used.
The dopa oxidation activity was indicated as μmol of dopa chrome/min/mg of protein.

SMILES | Activity (dopa oxidation activity)
Cc1ccc(O)cc1O [drawing 15, reference compound] | 16.81 μmol of dopa chrome/min/mg of
CCc1ccc(O)cc1O [Experiment 7] | 7.44 μmol of dopa chrome/min/mg of
Oc1ccc(O)cc1 [hydroquinone, reference compound] | 26.94 μmol of dopa chrome/min/mg of
CCCCCCCCc1ccc(O)cc1O [Experiment 11] | 0.00 μmol of dopa chrome/min/mg of
CCCCc1ccc(O)cc1O [Experiment 8] | 0.00 μmol of dopa chrome/min/mg of
CCCCCCCCCCCCc1ccc(O)cc1O [Experiment 12] | 7.19 μmol of dopa chrome/min/mg of
CC(C)CCc1ccc(O)cc1O [Experiment 9] | 0.00 μmol of dopa chrome/min/mg of
CCCCCCc1ccc(O)cc1O [Experiment 10] | 0.00 μmol of dopa chrome/min/mg of

Test system: salmonella typhimuria
Assay: not given
Settings: Ames test using salmonella typhimuria

SMILES | variability (Ames test)
CC(C)CCc1ccc(O)cc1O [Isoamyl resorcinol, 4-Isoamyl resorcinol] | no variability

Test system: not listed separately
Assay: in vivo
Settings: mouse, ip, ddy male mice, intraperitoneal, read-out: LD50 i.p.
Method: The life or death of the mice before 24 hours was observed. The value of LD50 was calculated according to the Litchfield-Wilcoxom method using the above results.

SMILES | LD50 at 24 h [mg/kg]
CC(C)CCc1ccc(O)cc1O [drawing 17] | 269
CCCCCCc1ccc(O)cc1O [drawing 16] | 335

Same assay, conditions: mouse, po, ddy male mice, peroral, read-out: LD50 p.o.

SMILES | LD50 at 24 h [mg/kg]
CC(C)CCc1ccc(O)cc1O [drawing 17] | > 500
CCCCCCc1ccc(O)cc1O [drawing 16] | > 500

Same assay, conditions: mouse, sc, ddy male mice, subcutaneous, read-out: LD50 s.c.

SMILES | LD50 at 24 h [mg/kg]
CC(C)CCc1ccc(O)cc1O [drawing 17] | > 500
CCCCCCc1ccc(O)cc1O [drawing 16] | > 500

Test system: skin
Assay: not given
Settings: cited from earlier work

SMILES | depigmental effect
N[C@@H](CS)C(=O)O [cysteine] | do not exhibit a satisfactory depigmental effect since the development of the effect is very slow
N[C@@H](CCC(=O)N[C@@H](CS)C(=O)NCC(=O)O)C(=O)O [glutathione] | do not exhibit a satisfactory depigmental effect since the development of the effect is very slow
